Measurements from patent US6239111A, “In vivo method of improving survival rate of brain neurons” (Wakunaga Pharmaceutical Co., Ltd., priority 1996, dated 2001).
Like-named read-outs stand apart in the source and are kept apart here.

How the values were obtained:
hippocampus neurons = assay: Inhibition of reduction in survival rate of rat embryonic hippocampus neurons in serum-free culture; type: cell-based; settings: for viability at 1 µg/mL / viability at 0.1 µg/mL / viability at 0.01 µg/mL / viability at 0.001 µg/mL / viability at 0.0001 µg/mL: Rattus norvegicus, Neuron, 72 h, read-out: survival rate of neurons (control group taken as 100%); for viability at 1 µg/mL: 10^-6 g/ml; for inhibitory effect against reduction in survival rate of hippocampus neurons (in words): within the range of 1-1,000 ng/ml
From the text: From a rat at the 18th day of pregnancy (having an 18-day old embryo) the uterus was aseptically removed under etherification, and the fetus was obtained. The whole brain was collected from the fetus. From the brain placed in an L-15 medium, the hippocampus was separated under a microscope and minced with a knife. […] The thus-isolated cells were suspended in Eagle's MEM medium supplemented with 10% fetal calf serum, and inoculated at a concentration of 4×10^4 cells/cm^2 into wells of a 48-well plate which had been coated with poly-L-lysin in advance. […] After three-days' additional incubation, the cells were fixed, stained, and the number of surviving cells in each well was counted.
When the survival rate of the neurons in the control group was taken as 100%: […]

[1] = tested on: neurites of hippocampus cells; assay: Branching promotion effect on neurites of hippocampus cells; type: cell-based, rat; settings: number of branches from the longest neurite, one and two days after addition, FIG. 1
Procedure: The hippocampus cells obtained in a manner similar to that in Example 1 were incubated for 24 hours in a medium containing fetal calf serum, then for further 24 hours in a serum-free medium. Subsequently, compound (1-1) was added. When compound (1-1) was added, and at the times of one and two days after addition, photographs were taken of the same cells. The number of branches from the longest neurite was counted.

[2] = Oral acute toxicity (LD50) in rats; settings: rat, in vivo, oral administration
[3] = Oral acute toxicity (LD50) in mice; settings: mouse, in vivo, oral administration
[4] = three days' incubation, serum-free medium
[5] = 10^-7 g/ml, three days' incubation, serum-free medium
[6] = 10^-8 g/ml, three days' incubation, serum-free medium
[7] = 10^-9 g/ml, three days' incubation, serum-free medium
[8] = 10^-10 g/ml, three days' incubation, serum-free medium

Structure (SMILES)	viability at 1 µg/mL (hippocampus neurons; [4]) [%]	viability at 0.1 µg/mL (hippocampus neurons; [5]) [%]	viability at 0.01 µg/mL (hippocampus neurons; [6]) [%]	viability at 0.001 µg/mL (hippocampus neurons; [7]) [%]	inhibitory effect against reduction in survival rate of hippocampus neurons (in words) (hippocampus neurons)	also measured
C=CC[S+]([O-])C[C@H](N)C(=O)O (stereo partly drawn) [(1-2)]	130 to 150	130 to 150	110 to 130	110 to 130		viability at 0.0001 µg/mL (hippocampus neurons; [8]): 90 to 110%
C=CCS(=O)(=O)C[C@H](N)C(=O)O [(1-3)]	130 to 150	110 to 130	110 to 130	110 to 130		
C=CCSSC[C@H](N)C(=O)O [(1-4)]	90 to 110	130 to 150	110 to 130	90 to 110		viability at 0.0001 µg/mL (hippocampus neurons; [8]): 90 to 110%
C=CCSC[C@H](NC(C)=O)C(=O)O [(1-5)]	110 to 130	110 to 130	110 to 130	90 to 110		
C=CCSC[C@H](NC(=O)CC[C@H](N)C(=O)O)C(=O)O [(1-6)]	130 to 150	130 to 150	130 to 150	90 to 110		viability at 0.0001 µg/mL (hippocampus neurons; [8]): 90 to 110%
C=CCSC[C@H](NC(=O)CC[C@H](N)C(=O)O)C(=O)NCC(=O)O [(1-7)]	130 to 150	130 to 150	90 to 110	90 to 110		viability at 0.0001 µg/mL (hippocampus neurons; [8]): 90 to 110%
C=CCSCC[C@H](N)C(=O)O [(1-9)]	90 to 110	110 to 130	90 to 110			
C=CCS [(1-10)]	110 to 130	110 to 130	110 to 130	90 to 110		viability at 0.0001 µg/mL (hippocampus neurons; [8]): 90 to 110%
C=CCSCC=C [(1-11)]	110 to 130	110 to 130	110 to 130	90 to 110		viability at 0.0001 µg/mL (hippocampus neurons; [8]): 90 to 110%
C=CCSSCC=C [(1-12)]						viability at 0.0001 µg/mL (hippocampus neurons): 90 to 110%; viability at 0.001 µg/mL (hippocampus neurons): 90 to 110%; viability at 0.01 µg/mL (hippocampus neurons): 110 to 130%; viability at 0.1 µg/mL (hippocampus neurons): 110 to 130%
C=CCSC(CC(=O)O)C(=O)O (stereo not drawn) [(1-13)]	110 to 130	110 to 130	90 to 110			
C=CCSc1ccccc1C(=O)O [(1-14)]	110 to 130	110 to 130	90 to 110			
C=CCSc1nc2ccccc2o1 [(1-15)]	110 to 130	110 to 130	90 to 110			
C=CCSC[C@H](N)C(=O)O [Compound (1-1)]	130 to 150	130 to 150	110 to 130	110 to 130		viability at 0.0001 µg/mL (hippocampus neurons; [8]): 90 to 110%; branching promotion effect on neurites [1]: confirmed to have branching promotion effect on neurites; LD50 [2]: ≥ 1000 mg/kg; LD50 [3]: ≥ 1000 mg/kg
N[C@@H](CS)C(=O)O [L-cysteine, reference compound]					No inhibitory effect	
C=CCNC(N)=O [N-allyl urea, reference compound]					No inhibitory effect	
C=CCOC(=O)[C@@H](N)CS [O-allyl-L-cysteine, reference compound]					No inhibitory effect	
CC=CSC[C@H](N)C(=O)O [S-(1-propenyl)-L-cysteine, reference compound]					No inhibitory effect	
C=CCCSC[C@H](N)C(=O)O [S-(3-butenyl)-L-cysteine, reference compound]					No inhibitory effect	
CSC[C@H](N)C(=O)O [S-methyl-L-cysteine, reference compound]					No inhibitory effect	
C[S+]([O-])C[C@H](N)C(=O)O (stereo partly drawn) [S-methyl-L-cysteinesulfoxide, reference compound]					No inhibitory effect	
C#CCSC[C@H](N)C(=O)O [S-propargyl-L-cysteine, reference compound]					No inhibitory effect	
CCCSC[C@H](N)C(=O)O [S-propyl-L-cysteine, reference compound]					No inhibitory effect	
C=CCO [allyl alcohol, reference compound]					No inhibitory effect	
C=CCNCC(=O)O [allyl glycine, reference compound]					No inhibitory effect	
C=CCOCC=C [diallyl ether, reference compound]					No inhibitory effect	
CCCSSCCC [dipropyldisulfide, reference compound]					No inhibitory effect	
CCCSCCC [dipropylsulfide, reference compound]					No inhibitory effect	
C=CCc1ccc(O)c(OC)c1 [eugenol, reference compound]					No inhibitory effect	
CCCSC[C@H](NC(=O)CC[C@H](N)C(=O)O)C(=O)O [gamma-glutamyl-S-propyl-L-cysteine, reference compound]					No inhibitory effect	
